Experimental data as given in patent publication US6723735B1, “Imidazo-pyridine derivatives as ligands for GABA receptors” (Merck Sharp & Dohme Ltd., priority 1999, dated 2004).
Where a name gives a salt, the structure may show the parent alone.

melting point	Structure (SMILES)
202 to 204 °C	c1cc(-n2ccnc2)cc(-n2cnc3cc(-c4ccoc4)cnc32)c1 (as salt: oxalate) [Example 3, 6-(Furan-3-yl)-3-[3-(imidazol-1-yl)phenyl]-3H-imidazo[4,5-b]pyridine]
191 to 192 °C	c1cncc(-c2cccc(-n3cnc4cc(-c5ccoc5)cnc43)c2)c1 [Example 1, 6-(Furan-3-yl)-3-[3-(pyridin-3-yl)phenyl]-3H-imidazo[4,5-b]pyridine]
179 to 180 °C	c1ccc(-c2cnc3c(c2)ncn3-c2cccc(-c3cccnc3)c2)cc1 [Example 5, 6-Phenyl-3-[3-(pyridin-3-yl)phenyl]-3H-imidazo[4,5-b]pyridine]
